The results in this text go back to patent US9771585B2, “miR-155 inhibitors for treating cutaneous T cell lymphoma (CTCL)” (miRagen Therapeutics, Inc., priority 2015, dated 2017).

Holding throughout (assay type): cell-based, human
The subject of one data set is miR-155. The data set is described as follows: Dual luciferase reporter assay with miR-155 binding site in HeLa cells. Conditions: 2 nM oligonucleotide, 10 nM miR-155 mimic, 50 ng reporter. The source says:
To assess the activity of a miR-155 inhibitor, a dual luciferase reporter assay system was used. In brief, the binding site for miR-155 was cloned into the 3′ UTR of the Renilla luciferase gene located within the commercially-available psiCHECK-2 vector system (Promega). In the absence of a miR-155 inhibitor, the expression of Renilla luciferase protein is repressed by a miR-155 mimic. In the presence of a miR-155 inhibitor, the expression of Renilla luciferase protein is de-repressed. […] Expression of either Renilla or firefly luciferase is measured through detection of light emitted by the luciferase protein.
50 ng of the dual luciferase reporter plasmid containing the miR-155 binding site was transfected into HeLa cells without a miR-155 mimic (“Reporter” only), with 10 nM miR-155 mimic (“Reporter+mimic”), with 10 nM miR-155 mimic and 2 nM of the control oligonucleotide, or with 10 nM miR-155 mimic and 2 nM of a test miR-155 oligonucleotide inhibitor of 11-14 nucleotide lengths (Table 4). The miR-155 mimic was purchased from Dharmacon (miRIDIAN microRNA Human hsa-miR-155-5p mimic; Accession number MIMAT0000646; catalog # C-300647-05-0005) and contains the mature miRNA sequence: -[…]-(SEQ ID NO: 121). The control oligonucleotide used in the experiment had the following sequence: 5′-1Cs.dTs.dAs.1Gs.dAs.1As.dAs.1Gs.1As.dGs.1Ts.dAs.1Gs.1A-3′ (SEQ ID NO: 122).

Data set [1] concerns miR-155-5p. Briefly: Whole genome expression profiling of Sézary syndrome cell line HuT78. Conditions: 8 days. As to the method: (§1) The activity of antimiR-155 compound 4 (SEQ ID NO: 25) was further investigated by treating the third mycosis fungoides cell line, MyLa, with compound 4 (SEQ ID NO: 25) for 4 days and 8 days and profiling the changes in gene expression. To test the specificity of compound 4 (SEQ ID NO: 25), cells of the Sézary syndrome cell line (HuT78) were treated with compound 4 (SEQ ID NO: 25) for 8 days and the changes in gene expression were profiled. Genes that are statistically changed with a false discovery rate (FDR) corrected p-value of <0.05 in response to compound 4 (SEQ ID NO: 25) in three mycosis fungoides cell lines, HuT102, MJ, and My-La, are depicted in the heat map as described above. The total number of genes in the heat map is 324.

The test system of data set [2] is HuT102 cells. The data set is described as follows: Apoptosis (caspase 3/7 activity) in HuT102 cells. On the procedure: (§2) Since the level of ATP correlates directly with cell number, ATP was measured to determine the cell number. […] The reduction in cell number was accompanied by an increase in apoptosis as measured by caspase 3/7 activity (FIG. 14B). The caspase 3 and 7 proteins are members of the cysteine aspartic acid-specific protease (caspase) family. The caspase family plays key effector roles in apoptosis in mammalian cells. Caspase activity was normalized to ATP levels, as all cells have a low level of basal caspase activity that can confound the results if not normalized appropriately.
HuT102 cells were treated with 0.25 μM SAHA and 10 μM compound 3 (SEQ ID NO: 23) or 4 (SEQ ID NO: 25), individually or in combination. Cells were harvested daily to measure ATP levels and caspase 3/7 activity. A similar experiment was performed with 0.50 μM SAHA.

In data set [3] the test system is HuT102 and MyLa cell lines. Briefly: Cellular proliferation of CTCL cells after passive uptake. Conditions: compared to compound 3. On the procedure:
(§3) Passive uptake of antimiR-155 compounds by CTCL cells produced a significant reduction in cellular proliferation and induced programmed cell death.
as §2

Data set [4] has as its system My-La cells. Briefly: Proliferation of My-La cells. Conditions: compared to compound 3. The source says:
(§4) FIGS. 17A and 17B show proliferation and activation of caspase 3/7 over time with compounds 3 (SEQ ID NO: 23) and 4 (SEQ ID NO: 25).

Data set [5] deals with HuT102 and MyLa cell lines. Briefly: Programmed cell death (apoptosis) of CTCL cells after passive uptake. Conditions: compared to compound 3. As to the method: as §3, §2
For data set [6], the system named is HuT102 cells. Briefly: Proliferation (cell number by ATP level) of HuT102 cells. Conditions: HuT-102 cells over time; compared with bexarotene. As to the method: as §2
The test system of data set [7] is miR-155-5p. Briefly: Real time PCR of miR-155 direct target genes (four-gene signature) in mycosis fungoides cell lines MJ, HuT102, My-La. Conditions: for gene expression signature of four direct miR-155-5p targets versus untreated cells: MJ and HuT102 cells, 10 μM, 72 hours; for target de-repression: both HuT102 and MyLa cell lines, compared to compound 3; for antimiR activity by four-gene signature (Bach1, Jarid2, Picalm, Ship1): cumulative across 2, 10 and 50 μM and three mycosis fungoides cell lines, compared to compounds 1 and 3. On the procedure:
CTCL cell lines were cultured in complete growth medium with the addition of antimiR-155 compound 1 (SEQ ID NO: 27), compound 2 (SEQ ID NO: 22), compound 3 (SEQ ID NO: 23), and compound 4 (SEQ ID NO: 25) at concentrations ranging from 2 μM to 50 μM. The antimiRs were added to the medium without any additional components to enhance cellular uptake. Cells were harvested after 72 hours of treatment and total RNA was purified. Real time PCR was performed for 13 direct gene targets of miR-155 (Worm et al. 2009; O'Connell et al. 2010; Zhang et al. 2012; and miRagen unpublished data). The relative fold-change in the expression of the 13 genes in the antimiR-treated cells compared to the untreated cells was calculated. […] Four predicted direct targets that lacked expression in at least one cell line were omitted. The gene expression fold-changes were log10-transformed, plotted on a grayscale, representing the highest relative increase in gene expression, and conversely, the greatest reduction in gene expression.
Four direct gene targets of miR-155-5p (Bach1, Jarid2, Picalm, and Ship1) were chosen for additional analysis, as these four genes were modulated by antimiR-155 in all three mycosis fungoides cell lines (MJ, HuT102, and My-La). These genes were chosen to represent the gene expression signature for antimiR activity in vitro. Additionally, the four-gene signature was used to compare the activity of the antimiR compounds. These gene changes were reproducible over three independent experiments with cells of varying passage numbers. FIGS. 3, 4, 5, 6, and 7 show the fold-change results of this four-gene signature in the HuT102, MJ, HH, My-La, and Hut78 cell lines, respectively. * p-value <0.0001 vs untreated by nonparametric Mann-Whitney test. The Mann-Whitney test was chosen because the variances are unequal between the treatments compared to untreated cells.
The control oligonucleotide was a 14-nucleotide antimiR targeting a C. elegans miRNA not expressed in mammals (control 1). The second oligo is a scramble of the 14-nucleotide sequence of antimiR-155 compound 4 (control 2). The MJ and HuT102 cell lines were incubated with 10 μM antimiR-155 compounds 3 (SEQ ID NO: 23) or 4 (SEQ ID NO: 25) or the two control oligos for 72 hours.

Data set [8] concerns My-La cells. Briefly: Caspase 3/7 activity in My-La cells. Conditions: compared to compound 3.
From the text: as §4

The test system of data set [9] is miR-155-5p. The data set is described as follows: Whole genome expression profiling of mycosis fungoides cell lines (MJ, HuT102, MyLa). As to the method: To gain a more complete understanding of the molecular consequences of miR-155 inhibition in mycosis fungoides cell lines, whole genome transcriptome profiling was performed on MJ and HuT102 cell lines treated with antimiR-155 compounds 3 (SEQ ID NO: 23) or 4 (SEQ ID NO: 25) for 4 days (96 hours) or 8 days. The statistically-significant gene expression signature was defined by one-way ANOVA for antimiR-treated cells compared to untreated cells at the same time point. […] The fold-change results are shown in FIGS. 9 and 10 as heat maps, as described for FIG. 2.
as §1

l = locked nucleic acid (LNA); d = 2'-deoxy (DNA)

On to “5′-1Cs.dTs.dAs.1Gs.dAs.1As.dAs.1Gs.1As.dGs.1Ts.dAs.1Gs.1A-3′ (CTAGAAAGAGTAGA; LNA/DNA mix, phosphorothioate backbone; miR-155 control oligo 11317; (1)..(14) May be joined through phosphorothioate bonds; modified_base (1)..(1) May be locked nucleic acid cytidine; modified_base (4)..(4) May be locked nucleic acid guanosine; modified_base (6)..(6) May be locked nucleic acid adenosine; modified_base (8)..(8) May be locked nucleic acid guanosine; modified_base (9)..(9) May be locked nucleic acid adenosine; modified_ba) [control oligonucleotide, control oligonucleotide used in the dual luciferase reporter experiment]”, for which the “de-repression of Renilla luciferase expression” value with miR-155 is given as “did not de-repress the expression of luciferase”.

Take “5′-lCs.dAs.lCs.dGs.dAs.lTs.lTs.dAs.lGs.dCs.lAs.lTs.lTs.lA-3′ (CACGATTAGCATTA; sugars from the 5' end ldlddlldldllll, all phosphorothioate, methylation of C not given here) [compound 4]”: the “change in gene expression” value in the data set on miR-155-5p [1] was “did not show much change in the gene expression”. The “apoptosis (caspase 3/7 activity) in combination with SAHA” value with HuT102 cells [2] (HuT102, 10 μM compound combined with 0.25 or 0.5 μM SAHA, compared to each treatment alone) is on record as “increased apoptosis”. Also, the “induction of apoptosis (caspase 3/7 activity normalized to ATP)” value in the data set with HuT102 cells [2] (HuT-102 cells over time, compared with bexarotene) was “greater induction of apoptosis than bexarotene”. Further, in data set [3], the inhibition of proliferation entry is on record as “greater inhibition of proliferation”. In addition, in the data set on My-La cells [4], the proliferation over time entry is “greater activity”. In data set [5], the apoptotic activity entry was “greater apoptotic activity”. Also, in the data set with HuT102 cells [6], the “effect on cell number (ATP)” value was “comparable to that seen with bexarotene”. Further, in the data set with miR-155-5p [7], the “gene expression signature of four direct miR-155-5p targets versus untreated cells” value is “statistically significantly different from that of untreated cells”; the target de-repression entry is reported as “greater target de-repression”; the “antimiR activity by four-gene signature (Bach1, Jarid2, Picalm, Ship1)” value is “more active”. Besides, the “activation of caspase 3/7 over time” value in the data set with My-La cells [8] is on record as “greater activity”. Moreover, in the data set on miR-155-5p [9] (Day 4 and Day 8 signatures combined, Table 2), the “genes up-regulated or down-regulated in all three mycosis fungoides cell lines” value is reported as 587 genes. Moreover, the “magnitude of gene regulation” value in the data set with miR-155-5p [9] (MJ and HuT102, day 4 and day 8, heat map intensity) is reported as “greater magnitude of gene regulation”.

In the case of “5′-lCs.dGs.lAs.lTs.lTs.dAs.lGs.dCs.lAs.lTs.lTs.lA-3′ (CGATTAGCATTA; sugars from the 5' end ldllldldllll, all phosphorothioate, methylation of C not given here) [compound 3]”, the “gene expression signature of four direct miR-155-5p targets versus untreated cells” value in the data set with miR-155-5p [7] is “statistically significantly different from that of untreated cells”.

In the case of “5′-lCs.dGs.lAs.lTs.lTs.lAs.lGs.dCs.lAs.lTs.lTs.lA-3′ (CGATTAGCATTA; sugars from the 5' end l1 d1 l5 d1 l4, all phosphorothioate, methylation of C not given here) [compound 2]”, the inhibition of proliferation entry in [3] was “greater inhibition of proliferation”. The apoptotic activity entry in [5] is on record as “greater apoptotic activity”. Moreover, in the data set with miR-155-5p [7], the target de-repression entry is given as “greater target de-repression” and the “antimiR activity by four-gene signature (Bach1, Jarid2, Picalm, Ship1)” value is listed as “more active”.
